Test results: patent publication US9040545B2, “Heterocyclyl pyrazolopyrimidine analogues as selective JAK inhibitors” (Cellzome Limited, priority 2010, dated 2015)

Key:
Aurora B = biological target: T1, Aurora B (Homo sapiens, UniProt Q96GD4); test: Kinobeads assay, Aurora B; assay type: binding; settings: for IC50: lysate of pervanadate-treated Jurkat cells, read-out: Inhibition values (IC50) Aur B
T1 construct: cell lysates from Jurkat cells (ATCC TIB-152) used; endogenous in cells; host or cells: Jurkat cells (ATCC TIB-152), treated with pervanadate
T1 sequence (Q96GD4 whole entry): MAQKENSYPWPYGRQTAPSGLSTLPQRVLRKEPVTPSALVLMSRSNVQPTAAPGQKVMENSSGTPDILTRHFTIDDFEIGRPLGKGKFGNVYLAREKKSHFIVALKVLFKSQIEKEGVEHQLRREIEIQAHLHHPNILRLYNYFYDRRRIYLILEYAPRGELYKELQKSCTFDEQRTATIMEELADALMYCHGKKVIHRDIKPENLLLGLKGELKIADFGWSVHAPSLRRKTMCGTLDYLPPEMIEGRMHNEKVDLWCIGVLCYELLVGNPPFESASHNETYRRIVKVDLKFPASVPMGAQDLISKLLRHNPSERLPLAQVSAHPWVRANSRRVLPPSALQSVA

Aurora A = biological target: T2, Aurora A (Homo sapiens, UniProt O14965); test: Kinobeads assay, Aurora A; assay type: binding; settings: for IC50: lysate of pervanadate-treated Jurkat cells, read-out: Inhibition values (IC50) Aur A
T2 construct: cell lysates from Jurkat cells (ATCC TIB-152) used; endogenous in cells; host or cells: Jurkat cells (ATCC TIB-152), treated with pervanadate
T2 sequence (O14965 1-403): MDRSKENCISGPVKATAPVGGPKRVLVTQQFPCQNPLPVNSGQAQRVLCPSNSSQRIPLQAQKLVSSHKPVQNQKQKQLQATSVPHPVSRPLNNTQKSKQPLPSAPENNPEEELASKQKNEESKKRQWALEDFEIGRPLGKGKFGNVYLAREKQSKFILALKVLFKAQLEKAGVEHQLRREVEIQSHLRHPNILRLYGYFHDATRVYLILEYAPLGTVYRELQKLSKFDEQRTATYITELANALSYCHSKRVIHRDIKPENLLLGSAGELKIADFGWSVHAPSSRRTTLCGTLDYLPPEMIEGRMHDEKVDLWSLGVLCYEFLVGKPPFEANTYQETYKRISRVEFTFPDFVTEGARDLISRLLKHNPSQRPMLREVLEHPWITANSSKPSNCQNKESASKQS

| Structure (SMILES) | JAK3/AurB Fold Selectivity (Aurora B) | IC50 (Aurora B) [nM] | JAK3/AurA Fold Selectivity (Aurora A) | IC50 (Aurora A) [nM] |
| --- | --- | --- | --- | --- |
| c1cc(Cn2ncc3cnc(Nc4cnn(CC5CCNC5)c4)nc32)cc(N2CCOCC2)c1 (stereo not shown) [Example 60, 1-(3-Morpholinobenzyl)-N-(1-(pyrrolidin-3-ylmethyl)-1H-pyrazol-4-yl)-1H-pyrazolo[3,4-d]pyrimidin-6-amine] | >50 Fold | 1000 to 10000 | >50 Fold | 1000 to 10000 |
| COC1CN(c2cccc(Cn3ncc4cnc(Nc5cnn(C)c5)nc43)c2)C1 [Example 65, 1-(3-(3-Methoxyazetidin-1-yl)benzyl)-N-(1-methyl-1H-pyrazol-4-yl)-1H-pyrazolo[3,4-d]pyrimidin-6-amine] | >50 Fold | 1000 to 10000 | >50 Fold | 1000 to 10000 |
| CNC(=O)Cn1cc(Nc2ncc3cnn(Cc4cc(F)cc(N5CCOCC5=O)c4)c3n2)cn1 [Example 68, 2-(4-((1-(3-Fluoro-5-(3-oxomorpholino)benzyl)-1H-pyrazolo[3,4-d]pyrimidin-6-yl)amino)-1H-pyrazol-1-yl)-N-methylacetamide] | >50 Fold | 100 to 1000 | 10-50 Fold | 100 to 1000 |
| Cn1cc(Nc2ncc3cnn(Cc4c(F)ccc(N5CCOCC5=O)c4F)c3n2)cn1 [Example 69, 4-(2,4-Difluoro-3-((6-((1-methyl-1H-pyrazol-4-yl)amino)-1H-pyrazolo[3,4-d]pyrimidin-1-yl)methyl)phenyl)morpholin-3-one] | 10-50 Fold | 100 to 1000 | 3-10 Fold | < 100 |

Further lines, results first:

| JAK3/AurB Fold Selectivity (Aurora B) | IC50 (Aurora B) [nM] | JAK3/AurA Fold Selectivity (Aurora A) | IC50 (Aurora A) [nM] | Structure (SMILES) |
| --- | --- | --- | --- | --- |
| 10-50 Fold | 100 to 1000 | >50 Fold | 100 to 1000 | Cn1cc(Nc2ncc3cnn(Cc4c(F)c(F)cc(N5CCOCC5=O)c4F)c3n2)cn1 [Example 61, 4-(2,4,5-Trifluoro-3-((6-((1-methyl-1H-pyrazol-4-yl)amino)-1H-pyrazolo[3,4-d]pyrimidin-1-yl)methyl)phenyl)morpholin-3-one] |
| 10-50 Fold | 100 to 1000 | 10-50 Fold | 100 to 1000 | O=C1COCCN1c1cc(F)c(F)c(Cn2ncc3cnc(Nc4cnn(CCO)c4)nc32)c1F [Example 62, 4-(2,4,5-Trifluoro-3-((6-((1-(2-hydroxyethyl)-1H-pyrazol-4-yl)amino)-1H-pyrazolo[3,4-d]pyrimidin-1-yl)methyl)phenyl)morpholin-3-one] |
| 3-10 Fold | < 100 | 10-50 Fold | 100 to 1000 | O=C1CNCCN1c1cc(F)cc(Cn2ncc3cnc(Nc4cnn(CCO)c4)nc32)c1 [Example 63, 1-(3-Fluoro-5-((6-((1-(2-hydroxyethyl)-1H-pyrazol-4-yl)amino)-1H-pyrazolo[3,4-d]pyrimidin-1-yl)methyl)phenyl)piperazin-2-one] |
| 10-50 Fold | 100 to 1000 | 10-50 Fold | 100 to 1000 | Cn1cc(Nc2ncc3cnn(Cc4cc(F)cc(N5CCNCC5=O)c4)c3n2)cn1 [Example 64, 1-(3-Fluoro-5-((6-((1-methyl-1H-pyrazol-4-yl)amino)-1H-pyrazolo[3,4-d]pyrimidin-1-yl)methyl)phenyl)piperazin-2-one] |
| 3-10 Fold | < 100 | 10-50 Fold | 100 to 1000 | Cn1cc(Nc2ncc3cnn(Cc4c(F)c(F)cc(N5CCNCC5)c4F)c3n2)cn1 [Example 66, N-(1-Methyl-1H-pyrazol-4-yl)-1-(2,3,6-trifluoro-5-(piperazin-1-yl)benzyl)-1H-pyrazolo[3,4-d]pyrimidin-6-amine] |
| 10-50 Fold | 100 to 1000 | >50 Fold | 100 to 1000 | Cn1cc(Nc2ncc3cnn(Cc4cccc(N5CCNCC5)c4F)c3n2)cn1 [Example 67, 1-(2-Fluoro-3-(piperazin-1-yl)benzyl)-N-(1-methyl-1H-pyrazol-4-yl)-1H-pyrazolo[3,4-d]pyrimidin-6-amine] |
